Literature values in publication PMC10799843 (Molecular pharmaceutics, 2023).

Test system: denatured collagen
Conditions: control scrambled peptide

**Q.** With “Cy5.5-KGGG-OfGGOfGfGfOfOGOfGOOfGGOOffG [^SCHP]” as the substance, how does the Collagen binding affinity read?
**A.** lacking in collagen binding affinity
